Assay results from patent publication US3983105A, “Penicillins” (Bayer Aktiengesellschaft, priority 1971, dated 1976).

Columns and labels:
Assay type in all cases: cell-based
[1] = system: Klebsiella-Aerobacter; test: MIC, test tube serial dilution, Klebsiella-Aerobacter
[2] = system: Proteus morganii; test: MIC, test tube serial dilution, Proteus morganii
[3] = system: Streptococcus faecalis; test: MIC, test tube serial dilution, Streptococcus faecalis
[4] = system: Proteus vulgaris; test: MIC, test tube serial dilution, Proteus vulgaris
[5] = system: Staphylococcus aureus; test: MIC, test tube serial dilution, Staphylococcus aureus
[6] = system: Pseudomonas aeruginosa; test: MIC, test tube serial dilution, Pseudomonas aeruginosa
[7] = system: Escherichia coli; test: MIC, test tube serial dilution, Escherichia coli
[8] = strain 1756 (BRL 1 756), 24 hours, 37°C

SMILES	MIC ([1]; strain 63, 24 hours, 37°C) [U/ml]	MIC ([1]; strain K 10, 24 hours, 37°C) [U/ml]	MIC ([2]; unit assumed) [µg/mL]	MIC [5, 8] [U/ml]	MIC ([6]; strain Bonn, 24 hours, 37°C) [U/ml]	MIC ([7]; strain 183/58, 24 hours, 37°C) [U/ml]	MIC ([7]; strain A 261, 24 hours, 37°C) [U/ml]	MIC ([1]; Table 3, strain 63) [U/ml]	MIC ([1]; Table 3, strain K 10) [U/ml]	MIC ([2]; Table 3, strain 932) [U/ml]	MIC ([3]; Table 3, ATCC 9790) [U/ml]	MIC ([5]; Table 3, strain 1756E)	MIC ([6]; Table 3, strain F 41) [U/ml]	MIC ([6]; Table 3, strain Walter) [U/ml]	MIC ([7]; Table 3, strain 14) [U/ml]	MIC ([7]; Table 3, strain 183/58) [U/ml]	MIC ([7]; Table 3, strain A 261) [U/ml]	MIC ([7]; Table 3, strain C 165) [U/ml]	MIC ([4]; Table 3, strain 1017) [U/ml]	MIC ([5]; Table 3, strain 133) [U/ml]	further results
CN(C(=O)N[C@@H](C(=O)N[C@@H]1C(=O)N2[C@@H]1SC(C)(C)[C@@H]2C(=O)O)c1ccccc1)C(=O)N1CCCS1(=O)=O [Example 29, Sodium D(-)-α-{3-[N-(1,1-dioxo-isothiazolidin-2-yl)-carbonyl]-3-methyl}-ureido-benzylpenicillin]	64	64	128	256	16	32	> 256	–	–	–	–	–	–	–	–	–	–	–	–	–	MIC ([3]; ATCC 9790, 24 hours, 37°C): 16 U/ml; MIC ([4]; strain 1017, 24 hours, 37°C): 64 U/ml; MIC ([6]; strain Walter, 24 hours, 37°C): 16 U/ml; MIC ([7]; strain C 165, 24 hours, 37°C): 16 U/ml
CC(=O)N1CCN(C(=O)NC(C(=O)N[C@@H]2C(=O)N3[C@@H]2SC(C)(C)[C@@H]3C(=O)O)c2ccc(C)cc2)C1=O (stereo partly drawn) [Penicillin No. 8 (Table 3), Sodium D,L-α-[(3-acetyl-imidazolidin-2-on1-yl)-carbonylamino]-4-methyl-benzylpenicillin]	–	–	–	–	–	–	–	128	32	32	64	~ 64 U/ml	128	64	2	8	512	8	–	–	MIC ([4]; unit assumed): 16 µg/mL
CCS(=O)(=O)N1CCN(C(=O)NC(C(=O)N[C@@H]2C(=O)N3[C@@H]2SC(C)(C)[C@@H]3C(=O)O)c2ccc(Cl)cc2)C1=O (stereo partly drawn) [Penicillin No. 13 (Table 3), Sodium α-[(3-ethylsulphonyl-imidazolidin-2-on-1-yl)-carbonylamino]-p-chlorobenzylpenicillin]	–	–	–	–	–	–	–	64	32	128	128	256 U/ml	128	128	4	4	> 256	8	16	4	–
CC1(C)S[C@@H]2[C@H](NC(=O)[C@H](NC(=O)NC(=O)NS(C)(=O)=O)c3ccccc3)C(=O)N2[C@H]1C(=O)O [Example 31, Sodium D(-)-α-(5 -mesyl-biureido)-benzylpenicillin]	> 256	> 256	–	64	256	128	> 256	–	–	–	–	–	–	–	–	–	–	–	–	–	MIC ([2]; strain 932, 24 hours, 37°C): 64 U/ml; MIC ([3]; unit assumed): 32 µg/mL; MIC ([4]; strain 1017, 24 hours, 37°C): > 256 U/ml; MIC ([6]; strain Walter, 24 hours, 37°C): 256 U/ml
CC(=O)N1CCN(C(=O)NC(C(=O)N[C@@H]2C(=O)N3[C@@H]2SC(C)(C)[C@@H]3C(=O)O)c2c(Cl)cccc2Cl)C1=O (stereo partly drawn) [Penicillin No. 10 (Table 3), Sodium D,L-α-[(3-acetyl-imidazolidin-2-on-1-yl)carbonylamino]-2,6-dichloro-benzylpenicillin]	–	–	–	–	–	–	–	> 512	> 512	256	> 512	512 U/ml	> 512	> 512	128	256	> 512	512	256	16	–
COC(=O)N1CCN(C(=O)NC(C(=O)N[C@@H]2C(=O)N3[C@@H]2SC(C)(C)[C@@H]3C(=O)O)c2cccs2)C1=O (stereo partly drawn) [Penicillin No. 20 (Table 3), Sodium D,L-α-[(3-methoxycarbonyl-imidazolidin-2-on-1-yl)-carbonylamino]-α-thienyl(2)-methylpenicillin]	–	–	–	–	–	–	–	32	32	32	16	64 U/ml	64	32	4	8	> 256	8	8	< 1	–
CCS(=O)(=O)N1CCN(C(=O)N[C@@H](C(=O)N[C@@H]2C(=O)N3[C@@H]2SC(C)(C)[C@@H]3C(=O)O)c2ccccc2)C1=O [Penicillin No. 11 (Table 3), Sodium D(-)-α-[(3-ethylsulphonyl-imidazolidin-2-on-1-yl)-carbonylamino]-benzylpenicillin]	–	–	–	–	–	–	–	16	16	16	64	128 U/ml	64	64	< 1	2	512	4	4	2	–
CC(=O)N1CCN(C(=O)N[C@@H](C(=O)N[C@@H]2C(=O)N3[C@@H]2SC(C)(C)[C@@H]3C(=O)O)c2ccccc2)C1=O [Example 1, Sodium D(-)-α-[(3-acetyl-imidazolidin-2-on-1-yl)-carbonylamino]-benzylpenicillin]	25	100	6	400	25	3	400	–	–	–	–	–	–	–	–	–	–	–	–	–	MIC ([3]; ATCC 9790, 24 hours, 37°C): 25 U/ml; MIC ([4]; unit assumed): 6 µg/mL; MIC ([6]; strain Walter, 24 hours, 37°C): 50 U/ml
CN(C)C(=O)N1CCN(C(=O)N[C@@H](C(=O)N[C@@H]2C(=O)N3[C@@H]2SC(C)(C)[C@@H]3C(=O)O)c2ccccc2)C1=O [Example 6, Sodium D(-)-α-[(3-dimethylaminocarbonyl-imidazolidin-2-on-1-yl)-carbonylamino]-benzylpenicillin]	32	16	–	64	32	4	> 256	–	–	–	–	–	–	–	–	–	–	–	–	–	MIC ([2]; strain 932, 24 hours, 37°C): 64 U/ml; MIC ([3]; ATCC 9790, 24 hours, 37°C): 32 U/ml; MIC ([4]; strain 1017, 24 hours, 37°C): 16 U/ml; MIC ([6]; strain Walter, 24 hours, 37°C): 32 U/ml
COC(=O)N1CCN(C(=O)N[C@@H](C(=O)N[C@@H]2C(=O)N3[C@@H]2SC(C)(C)[C@@H]3C(=O)O)c2ccccc2)C1=O [Example 3, Sodium D(-)-α-[(3-methoxycarbonyl-imidazolidin-2-on-1-yl)-carbonylamino]-benzylpenicillin]	16	16	8	> 256	16	4	–	–	–	–	–	–	–	–	–	–	–	–	–	–	MIC ([3]; ATCC 9790, 24 hours, 37°C): 64 U/ml; MIC ([4]; unit assumed): 8 µg/mL; MIC ([6]; strain Walter, 24 hours, 37°C): 16 U/ml
CC1(C)S[C@@H]2[C@H](NC(=O)C(NC(=O)N3CCN(S(C)(=O)=O)C3=O)c3c(Cl)cccc3Cl)C(=O)N2[C@H]1C(=O)O (stereo partly drawn) [Penicillin No. 5 (Table 3), Sodium D,L-α-[(3-methylsulphonyl-imidazolidin-2-on-1-yl)-carbonylamino]-2,6-dichloro-benzylpenicillin]	–	–	–	–	–	–	–	≥ 256	≥ 256	32	256	≥ 256 U/ml	≥ 256	≥ 256	256	256	≥ 256	≥ 256	256	4	–
CC1(C)S[C@@H]2[C@H](NC(=O)[C@H](NC(=O)N3CCN(C(=O)N4CCCCC4)C3=O)c3ccccc3)C(=O)N2[C@H]1C(=O)O [Example 9, Sodium D(-)-α-[(3-piperdyl-N-carbonyl-imidazolidin-2-on-1-yl)-carbonylamino]-benzylpenicillin]	–	–	32	> 256	64	4	> 256	–	–	–	–	–	–	–	–	–	–	–	–	–	MIC ([1]; in µg/mL (unit assumed)): 8; MIC ([3]; unit assumed): 128 µg/mL; MIC ([4]; unit assumed): 32 µg/mL; MIC ([6]; in µg/mL (unit assumed)): 32
CCS(=O)(=O)N1CCN(C(=O)N[C@@H](C(=O)N[C@@H]2C(=O)N3[C@@H]2SC(C)(C)[C@@H]3C(=O)O)c2ccccc2)C1=O [Example 24, Sodium D(-)-α-[(3-ethanesulphonyl-imidazolidin-2-on-1-yl)-carbonylamino]-benzylpenicillin]	–	–	2	32	–	< 1	512	–	–	–	–	–	–	–	–	–	–	–	–	–	MIC ([1]; in µg/mL (unit assumed)): 8; MIC ([3]; ATCC 9790, 24 hours, 37°C): 16 U/ml; MIC ([4]; unit assumed): 2 µg/mL; MIC ([6]; in µg/mL (unit assumed)): 32
CC(=O)N1CCN(C(=O)N[C@H](C(=O)N[C@@H]2C(=O)N3[C@@H]2SC(C)(C)[C@@H]3C(=O)O)c2ccccc2)C1=O [Penicillin No. 6 (Table 3), Sodium L(+)-α-[(3-acetyl-imidazolidin-2-on-1-yl)-carbonylamino]-benzylpenicillin]	–	–	–	–	–	–	–	256	128	64	128	128 U/ml	256	128	8	16	> 512	32	32	2	–
